In PMC5012908 (Acta biomaterialia, 2016):

Legend:
[1] = read-out: IC50 (antifungal); isotonic glucose phosphate buffer; cited from earlier work
[2] = Circular dichroism of β-peptide solutions; format: physicochemical; conditions: 0.1 mM peptide, 20 °C, consistent with 14-helicity without aggregation

Substance | IC50 [1] | CD minimum in methanol [2]
magainin-2 | 0.3 µM | –
Coumarin-linker-(ACHC-β^3hVal-β^3hLys)3 [β-peptide 1] | – | 214 nm
